# According to PubChem BioAssay AID1963847 (Molecular Pharmacology Branch, DTP, NCI, 2024):
# Test system: 415267-285-R-J2-PDC complex spheroid viability
# Experiment: Anticancer human tumor 415267-285-R-J2-PDC patient-derived breast carcinoma cell line growth inhibition [POLQ]
# Conditions: for IC50: curve of first compound; for viability, T/C: stronger effect = lower value
# How it was run: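 Complex spheroid viability model combining PDC tumour cells with endothelial (HUVEC) and MSC stromal cells. Novobiocin, ART-558 or RP6685 were tested singly and in combination with standard and investigational anticancer drugs. Each was titrated in half-log steps from near clinical Cmax, or from 10 microM where Cmax was unknown.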
# [1] = second compound 0.0316 µM, first compound 0.0316 µM
# [2] = second compound 0.0316 µM, first compound 0.1 µM
# [3] = second compound 0.0316 µM, first compound 0.316 µM
# [4] = second compound 0.0316 µM, first compound 1 µM
# [5] = second compound 0.0316 µM, first compound 3.16 µM
# [6] = second compound 0.0316 µM, first compound 10 µM
# [7] = second compound 0.1 µM, first compound 0.0316 µM
# [8] = second compound 0.1 µM, first compound 0.1 µM
# [9] = second compound 0.1 µM, first compound 0.316 µM
# [10] = second compound 0.1 µM, first compound 1 µM
# [11] = second compound 0.1 µM, first compound 3.16 µM
# [12] = second compound 0.1 µM, first compound 10 µM
# [13] = second compound 0.316 µM, first compound 0.0316 µM
# [14] = second compound 0.316 µM, first compound 0.1 µM
# [15] = second compound 0.316 µM, first compound 0.316 µM
# [16] = second compound 0.316 µM, first compound 1 µM
# [17] = second compound 0.316 µM, first compound 3.16 µM
# [18] = second compound 0.316 µM, first compound 10 µM
# [19] = second compound 1 µM, first compound 0.0316 µM
# [20] = second compound 1 µM, first compound 0.1 µM
# [21] = second compound 1 µM, first compound 0.316 µM
# [22] = second compound 1 µM, first compound 1 µM
# [23] = second compound 1 µM, first compound 3.16 µM
# [24] = second compound 1 µM, first compound 10 µM
# [25] = second compound 3.16 µM, first compound 0.0316 µM
# [26] = second compound 3.16 µM, first compound 0.1 µM
# [27] = second compound 3.16 µM, first compound 0.316 µM
# [28] = second compound 3.16 µM, first compound 1 µM
# [29] = second compound 3.16 µM, first compound 3.16 µM
# [30] = second compound 3.16 µM, first compound 10 µM
# [31] = second compound 10 µM, first compound 0.0316 µM
# [32] = second compound 10 µM, first compound 0.1 µM
# [33] = second compound 10 µM, first compound 0.316 µM
# [34] = second compound 10 µM, first compound 1 µM
# [35] = second compound 10 µM, first compound 3.16 µM
# [36] = second compound 10 µM, first compound 10 µM
# 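Also: spheroids exposed to compounds for one week before readout.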
# 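For viability, T/C in this document: luminescence used as stand-in measure of viable cells; 100% = DMSO vehicle control viability.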
structure (smiles),measurement,setting,value
COc1ccc([C@@H](O)c2cc(-c3ncnc4cc(N5CCOCC5)ccc34)c(F)cc2Cl)nn1 + Nc1ccc(C#CCN(C(=O)Cc2ncc(C(F)(F)F)cc2C(F)(F)F)c2ccc(F)cc2)nn1,IC50,second compound 0.0316 µM,> 10 µM
same,IC50,second compound 0.1 µM,> 10 µM
same,IC50,second compound 0.316 µM,> 10 µM
same,IC50,second compound 1 µM,> 10 µM
same,IC50,second compound 3.16 µM,> 10 µM
same,IC50,second compound 10 µM,> 10 µM
same,"viability, T/C",[1],94.4%
same,"viability, T/C",[2],99.9%
same,"viability, T/C",[3],100%
same,"viability, T/C",[4],106%
same,"viability, T/C",[5],93%
same,"viability, T/C",[6],58.2%
same,"viability, T/C",[7],108%
same,"viability, T/C",[8],109%
same,"viability, T/C",[9],84.7%
same,"viability, T/C",[10],92.4%
same,"viability, T/C",[11],95.2%
same,"viability, T/C",[12],53.2%
same,"viability, T/C",[13],107%
same,"viability, T/C",[14],103%
same,"viability, T/C",[15],107%
same,"viability, T/C",[16],110%
same,"viability, T/C",[17],84.4%
same,"viability, T/C",[18],58%
same,"viability, T/C",[19],98.7%
same,"viability, T/C",[20],88%
same,"viability, T/C",[21],104%
same,"viability, T/C",[22],102%
same,"viability, T/C",[23],91.2%
same,"viability, T/C",[24],51.6%
same,"viability, T/C",[25],102%
same,"viability, T/C",[26],104%
same,"viability, T/C",[27],108%
same,"viability, T/C",[28],106%
same,"viability, T/C",[29],93.3%
same,"viability, T/C",[30],69.1%
same,"viability, T/C",[31],105%
same,"viability, T/C",[32],107%
same,"viability, T/C",[33],102%
same,"viability, T/C",[34],102%
same,"viability, T/C",[35],89.3%
same,"viability, T/C",[36],64.5%
CC(=O)O[C@H]1C(=O)[C@@]2(C)[C@H]([C@H](OC(=O)c3ccccc3)[C@]3(O)C[C@H](OC(=O)[C@H](O)[C@@H](NC(=O)c4ccccc4)c4ccccc4)C(C)=C1C3(C)C)[C@]1(OC(C)=O)CO[C@@H]1C[C@@H]2O + Cc1cccc(N(C)C(=O)C2C(O)CCN2c2nc(C)cc(C(F)(F)F)c2C#N)c1,IC50,second compound 0.0316 µM,< 0.00949 µM
same,IC50,second compound 0.1 µM,< 0.00949 µM
same,IC50,second compound 0.316 µM,< 0.00949 µM
same,IC50,second compound 1 µM,< 0.00949 µM
same,IC50,second compound 3.16 µM,< 0.00949 µM
same,IC50,second compound 10 µM,< 0.00949 µM
same,"viability, T/C","second compound 0.0316 µM, first compound 0.00949 µM",17.5%
same,"viability, T/C","second compound 0.0316 µM, first compound 0.03 µM",9.49%
same,"viability, T/C","second compound 0.0316 µM, first compound 0.0949 µM",9.45%
same,"viability, T/C","second compound 0.0316 µM, first compound 0.3 µM",5.12%
same,"viability, T/C","second compound 0.0316 µM, first compound 0.949 µM",6.11%
same,"viability, T/C","second compound 0.0316 µM, first compound 3 µM",8.5%
same,"viability, T/C","second compound 0.1 µM, first compound 0.00949 µM",14.3%
same,"viability, T/C","second compound 0.1 µM, first compound 0.03 µM",10.3%
same,"viability, T/C","second compound 0.1 µM, first compound 0.0949 µM",6.91%
same,"viability, T/C","second compound 0.1 µM, first compound 0.3 µM",5.82%
same,"viability, T/C","second compound 0.1 µM, first compound 0.949 µM",6.96%
same,"viability, T/C","second compound 0.1 µM, first compound 3 µM",7.65%
same,"viability, T/C","second compound 0.316 µM, first compound 0.00949 µM",15.2%
same,"viability, T/C","second compound 0.316 µM, first compound 0.03 µM",10.9%
same,"viability, T/C","second compound 0.316 µM, first compound 0.0949 µM",8.77%
same,"viability, T/C","second compound 0.316 µM, first compound 0.3 µM",8.04%
same,"viability, T/C","second compound 0.316 µM, first compound 0.949 µM",7.71%
same,"viability, T/C","second compound 0.316 µM, first compound 3 µM",6.2%
same,"viability, T/C","second compound 1 µM, first compound 0.00949 µM",16.9%
same,"viability, T/C","second compound 1 µM, first compound 0.03 µM",8.87%
same,"viability, T/C","second compound 1 µM, first compound 0.0949 µM",7.59%
same,"viability, T/C","second compound 1 µM, first compound 0.3 µM",5.96%
same,"viability, T/C","second compound 1 µM, first compound 0.949 µM",7.86%
same,"viability, T/C","second compound 1 µM, first compound 3 µM",7.38%
same,"viability, T/C","second compound 3.16 µM, first compound 0.00949 µM",13.7%
same,"viability, T/C","second compound 3.16 µM, first compound 0.03 µM",9.96%
same,"viability, T/C","second compound 3.16 µM, first compound 0.0949 µM",7.09%
same,"viability, T/C","second compound 3.16 µM, first compound 0.3 µM",7.4%
same,"viability, T/C","second compound 3.16 µM, first compound 0.949 µM",6.8%
same,"viability, T/C","second compound 3.16 µM, first compound 3 µM",8.17%
same,"viability, T/C","second compound 10 µM, first compound 0.00949 µM",12.7%
same,"viability, T/C","second compound 10 µM, first compound 0.03 µM",10%
same,"viability, T/C","second compound 10 µM, first compound 0.0949 µM",8.12%
same,"viability, T/C","second compound 10 µM, first compound 0.3 µM",8.5%
same,"viability, T/C","second compound 10 µM, first compound 0.949 µM",8.14%
same,"viability, T/C","second compound 10 µM, first compound 3 µM",9.36%
CC1COCCN1c1cc(C2(O)CC3CCC(C2)O3)c2cnn(-c3ccn[nH]3)c2n1 (stereo unspecified) + Nc1ccc(C#CCN(C(=O)Cc2ncc(C(F)(F)F)cc2C(F)(F)F)c2ccc(F)cc2)nn1,IC50,second compound 0.0316 µM,< 0.0316 µM
same,IC50,second compound 0.1 µM,< 0.0316 µM
same,IC50,second compound 0.316 µM,< 0.0316 µM
same,IC50,second compound 1 µM,< 0.0316 µM
same,IC50,second compound 3.16 µM,< 0.0316 µM
same,IC50,second compound 10 µM,< 0.0316 µM
same,"viability, T/C",[1],19.2%
same,"viability, T/C",[2],6.63%
same,"viability, T/C",[3],4.19%
same,"viability, T/C",[4],3.59%
same,"viability, T/C",[5],4.18%
same,"viability, T/C",[6],5.72%
same,"viability, T/C",[7],22%
same,"viability, T/C",[8],6.34%
same,"viability, T/C",[9],5.38%
same,"viability, T/C",[10],4.69%
same,"viability, T/C",[11],3.81%
same,"viability, T/C",[12],2.94%
same,"viability, T/C",[13],22.7%
same,"viability, T/C",[14],6.83%
same,"viability, T/C",[15],4.18%
same,"viability, T/C",[16],3.94%
same,"viability, T/C",[17],3.9%
same,"viability, T/C",[18],2.58%
same,"viability, T/C",[19],18.7%
same,"viability, T/C",[20],5.19%
same,"viability, T/C",[21],4.87%
same,"viability, T/C",[22],3.6%
same,"viability, T/C",[23],3.79%
same,"viability, T/C",[24],2.6%
same,"viability, T/C",[25],16.6%
same,"viability, T/C",[26],5.61%
same,"viability, T/C",[27],4.81%
same,"viability, T/C",[28],3.47%
same,"viability, T/C",[29],3.8%
same,"viability, T/C",[30],3.42%
same,"viability, T/C",[31],16.1%
same,"viability, T/C",[32],6.98%
same,"viability, T/C",[33],5.96%
same,"viability, T/C",[34],4.12%
same,"viability, T/C",[35],3.92%
same,"viability, T/C",[36],3.05%
